# Columns and labels:
# Assay type in all cases: functional
# Ecdysone receptor = biological target: T1, Ecdysone receptor (Aedes aegypti, UniProt P49880); assay: Effective concentration for ecdysone-dependent transactivation in mammalian cell line expressing Aedes aegypti ecdysone receptor
# T1 sequence (P49880 whole entry): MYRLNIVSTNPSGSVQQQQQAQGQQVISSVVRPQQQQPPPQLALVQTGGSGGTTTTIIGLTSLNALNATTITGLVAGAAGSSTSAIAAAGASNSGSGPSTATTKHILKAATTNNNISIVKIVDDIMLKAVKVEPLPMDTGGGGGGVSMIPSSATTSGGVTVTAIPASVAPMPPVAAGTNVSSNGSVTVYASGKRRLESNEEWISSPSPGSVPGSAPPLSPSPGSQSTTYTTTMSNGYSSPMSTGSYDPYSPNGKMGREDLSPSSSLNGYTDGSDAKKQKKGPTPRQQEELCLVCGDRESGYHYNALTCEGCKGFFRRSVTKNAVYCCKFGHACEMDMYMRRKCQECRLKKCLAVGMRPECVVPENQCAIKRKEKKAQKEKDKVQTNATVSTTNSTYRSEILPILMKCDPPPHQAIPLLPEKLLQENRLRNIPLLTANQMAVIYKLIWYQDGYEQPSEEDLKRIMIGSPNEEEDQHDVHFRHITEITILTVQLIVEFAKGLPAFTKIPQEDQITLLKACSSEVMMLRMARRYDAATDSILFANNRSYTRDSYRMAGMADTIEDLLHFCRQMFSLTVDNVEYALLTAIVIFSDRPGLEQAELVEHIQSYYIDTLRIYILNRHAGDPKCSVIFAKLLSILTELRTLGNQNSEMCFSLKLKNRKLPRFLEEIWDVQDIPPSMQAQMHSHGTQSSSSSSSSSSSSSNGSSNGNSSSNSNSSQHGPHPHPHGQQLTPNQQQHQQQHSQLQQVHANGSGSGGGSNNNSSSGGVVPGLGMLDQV
# [1] = biological target: T2, Ecdysone receptor (Aedes aegypti) (UniProt P49880); assay: Fold induction of ecdysone-dependent transactivation in mammalian cell line expressing Aedes aegypti ecdysone receptor at 33 uM
# T2 sequence (whole entry): T1 sequence (P49880 whole entry)
# [2] = biological target: T2, Ecdysone receptor (Aedes aegypti); assay: Ratio of maximal ecdysone-dependent transactivation in cell line expressing Aedes aegypti ecdysone receptor compared to cpd2
Compound,EC50 (Ecdysone receptor) [µM],Fold induction [1],Rel Max FI [2]
C[C@@H]1C[C@H](Nc2ccc(F)cc2)c2cc(F)ccc2N1C(=O)c1ccccc1F,3,78,0.28
COc1ccccc1C(=O)N1c2ccc(F)cc2[C@@H](Nc2ccc(F)cc2)C[C@H]1C,> 33.3,4,0.01
Cc1cccc(C(=O)N2c3ccc(F)cc3[C@@H](Nc3ccc(F)cc3)C[C@H]2C)c1,1.36,686,0.55
C[C@@H]1C[C@H](Nc2ccccc2)c2ccccc2N1C(=O)c1cccc(C(F)(F)F)c1,1.21,28,0.42
COc1ccc(C(=O)N2c3ccc(F)cc3[C@@H](Nc3ccc(F)cc3)C[C@H]2C)cc1,1.14,110,0.87
Cc1ccc(N[C@H]2C[C@@H](C)N(C(=O)c3ccc(Cl)cc3)c3ccc(C)cc32)cc1,2.15,43,0.39
COc1cccc(C(=O)N2c3ccc(C)cc3[C@@H](Nc3ccc(C)cc3)C[C@H]2C)c1,> 33.3,3,0.01
Cc1ccc(N[C@H]2C[C@@H](C)N(C(=O)c3ccc(C)cc3)c3ccc(C)cc32)cc1,5,121,0.26
Cc1ccc(N[C@H]2C[C@@H](C)N(C(=O)c3cccc(F)c3)c3ccc(C)cc32)cc1,3,102,0.27
COc1cccc(C(=O)N2c3ccccc3[C@@H](Nc3ccccc3)C[C@H]2C)c1,0.7,9,0.15
C[C@@H]1C[C@H](Nc2ccc(F)cc2)c2cc(F)ccc2N1C(=O)c1ccccc1,1.73,283,0.76
Cc1ccc(C(=O)N2c3ccc(F)cc3[C@@H](Nc3ccc(F)cc3)C[C@H]2C)cc1,0.87,91,0.67
C[C@@H]1C[C@H](Nc2ccc(F)cc2)c2cc(F)ccc2N1C(=O)c1ccc(Cl)cc1,0.64,212,0.7
C[C@@H]1C[C@H](Nc2ccc(F)cc2)c2cc(F)ccc2N1C(=O)c1ccc(C(F)(F)F)cc1,0.92,230,0.63
COc1ccc(C(=O)N2c3ccc(C)cc3[C@@H](Nc3ccc(C)cc3)C[C@H]2C)cc1,5.32,57,0.09
C[C@@H]1C[C@H](Nc2ccccc2)c2ccccc2N1C(=O)c1ccccc1,1.12,20,0.07
C[C@@H]1C[C@H](Nc2ccccc2)c2ccccc2N1C(=O)c1ccc(Cl)cc1,0.98,130,0.43
Cc1ccc(N[C@H]2C[C@@H](C)N(C(=O)c3ccc(C(F)(F)F)cc3)c3ccc(C)cc32)cc1,4.41,69,0.23
C[C@@H]1C[C@H](Nc2ccccc2)c2ccccc2N1C(=O)c1ccc(C(F)(F)F)cc1,1.18,89,0.64
C[C@@H]1C[C@H](Nc2ccccc2)c2ccccc2N1C(=O)c1ccccc1C(F)(F)F,–,1,–
CCc1c(OC)cccc1C(=O)NN(C(=O)c1cc(C)cc(C)c1)C(C)(C)C,0.44,–,–
C[C@@H]1C[C@H](Nc2ccc(F)cc2)c2cc(F)ccc2N1C(=O)c1cccc(F)c1,0.99,204,0.57
COc1ccc(C(=O)N2c3ccccc3[C@@H](Nc3ccccc3)C[C@H]2C)cc1,1.43,64,0.44

# More lines, now with the values ahead:
EC50 (Ecdysone receptor) [µM],Fold induction [1],Rel Max FI [2],Compound
1,89,0.93,C[C@@H]1C[C@H](Nc2ccc(F)cc2)c2cc(F)ccc2N1C(=O)c1cccc(C(F)(F)F)c1
> 33.3,5,0.01,Cc1ccc(N[C@H]2C[C@@H](C)N(C(=O)c3ccccc3F)c3ccc(C)cc32)cc1
> 33.3,12,0.04,Cc1ccc(N[C@H]2C[C@@H](C)N(C(=O)c3ccccc3C(F)(F)F)c3ccc(C)cc32)cc1
0.99,64,0.42,Cc1ccc(C(=O)N2c3ccccc3[C@@H](Nc3ccccc3)C[C@H]2C)cc1
0.75,75,0.44,C[C@@H]1C[C@H](Nc2ccccc2)c2ccccc2N1C(=O)c1cccc(F)c1
8.71,19,0.04,Cc1ccc(N[C@H]2C[C@@H](C)N(C(=O)c3ccccc3C)c3ccc(C)cc32)cc1
1.48,119,0.98,COc1cccc(C(=O)N2c3ccc(F)cc3[C@@H](Nc3ccc(F)cc3)C[C@H]2C)c1
5.4,35,0.19,Cc1ccc(N[C@H]2C[C@@H](C)N(C(=O)c3ccccc3)c3ccc(C)cc32)cc1
–,0,–,COc1ccccc1C(=O)N1c2ccc(C)cc2[C@@H](Nc2ccc(C)cc2)C[C@H]1C
11,64,0.32,C[C@@H]1C[C@H](Nc2ccc(F)cc2)c2cc(F)ccc2N1C(=O)c1ccccc1C(F)(F)F
1.84,12,0.47,Cc1ccc(N[C@H]2C[C@@H](C)N(C(=O)c3cccc(C(F)(F)F)c3)c3ccc(C)cc32)cc1
> 33.3,6,0.01,Cc1ccc(N[C@H]2C[C@@H](C)N(C(=O)c3cccc(C)c3)c3ccc(C)cc32)cc1
3.19,158,0.5,Cc1ccccc1C(=O)N1c2ccc(F)cc2[C@@H](Nc2ccc(F)cc2)C[C@H]1C

# Source: ChEMBL document CHEMBL1136529, “Synthesis and SAR of cis-1-benzoyl-1,2,3,4-tetrahydroquinoline ligands for control of gene expression in ecdysone responsive systems” (Bioorg Med Chem Lett, 2003)
